In article PMC10388327, “Dual Piperidine-Based Histamine H3 and Sigma-1 Receptor Ligands in the Treatment of Nociceptive and Neuropathic Pain” (Journal of Medicinal Chemistry, 2023):
Where a name gives a salt, the structure may show the parent alone. Read-outs that look alike come from different tables or passages of the source.

Assays:
[1] = target: T1, human histamine H1 receptor (hH1R) (Homo sapiens, UniProt P35367); assay: hH1R radioligand binding ([3H]mepyramine); conditions: read-out: hH1R (Ki [nM] x̅ [CI 95%]); HEK293T cells; n = 3, triplicate
T1 construct: SP (signal peptide) (N); FLAG (N); expressed in transfected cells
T1 sequence (P35367 whole entry): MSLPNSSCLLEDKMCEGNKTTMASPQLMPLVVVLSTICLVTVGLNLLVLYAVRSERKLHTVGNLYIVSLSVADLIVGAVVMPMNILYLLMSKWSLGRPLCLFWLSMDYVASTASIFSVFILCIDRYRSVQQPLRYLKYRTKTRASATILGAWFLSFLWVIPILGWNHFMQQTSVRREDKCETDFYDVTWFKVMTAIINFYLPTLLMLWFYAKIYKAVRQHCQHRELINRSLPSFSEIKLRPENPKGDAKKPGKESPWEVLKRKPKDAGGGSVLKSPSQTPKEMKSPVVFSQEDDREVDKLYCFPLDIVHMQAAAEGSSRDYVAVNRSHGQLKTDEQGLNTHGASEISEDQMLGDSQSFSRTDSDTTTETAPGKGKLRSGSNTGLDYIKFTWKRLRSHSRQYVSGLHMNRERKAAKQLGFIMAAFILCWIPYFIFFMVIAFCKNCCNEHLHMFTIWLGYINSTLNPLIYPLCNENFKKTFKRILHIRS
Method: (§1) To check the selectivity profile of our lead structures, radioligand binding studies at other histamine receptor subtypes were carried out. […] Obtained results clearly indicate the high selectivity of the tested derivatives toward human H3R (Table 3).
(§2) Compounds (as oxalate salts) were tested in H3R in vitro binding studies using the methods described previously.[21]−[23] […] Radioligand binding experiments at the H1R, H2R, and H4R were performed as previously described in Rosier et al.[65] and Bartole et al.[66] […] Data represent mean values ± CI from three independent experiments, each performed in triplicate. The normalized competition binding curves were then fitted with a four-parameter logistic fit yielding IC50 values using the Prism 8.4.3 software (GraphPad, San Diego, CA). The Ki values were estimated from the Cheng–Prusoff equation.[69]

sigma-2 receptor (σ2R) = target: T2, sigma-2 receptor (σ2R) (Rattus norvegicus, UniProt Q5U3Y7); assay: σ2R radioligand binding ([3H]DTG); conditions: read-out: σ2R Ki [nM] x̄ [CI 95%]; mean [CI 95%]
T2 construct: The thawed membrane preparation of rat liver was incubated; from tissue; host or cells: Sprague-Dawley rat liver membranes
T2 sequence (Q5U3Y7 1-176): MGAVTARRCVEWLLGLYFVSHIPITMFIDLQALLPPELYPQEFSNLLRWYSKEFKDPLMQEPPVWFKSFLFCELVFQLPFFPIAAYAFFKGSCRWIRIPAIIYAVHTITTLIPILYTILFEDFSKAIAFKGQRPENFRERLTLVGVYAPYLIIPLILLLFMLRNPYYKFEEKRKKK

[2] = target: T3, human histamine H2 receptor (hH2R) (Homo sapiens, UniProt P25021); assay: hH2R radioligand binding ([3H]UR-DE257); conditions: HEK293T cells, n = 3, triplicate
T3 construct: SP (signal peptide) (N); FLAG (N); expressed in transfected cells
T3 sequence (P25021 whole entry): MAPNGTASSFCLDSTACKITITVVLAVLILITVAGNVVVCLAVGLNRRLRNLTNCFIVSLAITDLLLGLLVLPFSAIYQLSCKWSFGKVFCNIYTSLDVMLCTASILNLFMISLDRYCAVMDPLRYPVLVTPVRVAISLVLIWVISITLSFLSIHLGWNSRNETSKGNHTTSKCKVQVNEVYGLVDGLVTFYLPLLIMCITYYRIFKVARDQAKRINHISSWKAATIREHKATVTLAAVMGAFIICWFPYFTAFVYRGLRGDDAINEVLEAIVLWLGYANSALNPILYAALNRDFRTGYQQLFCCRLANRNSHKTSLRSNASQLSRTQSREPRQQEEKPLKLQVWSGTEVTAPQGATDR
Method: as §1, §2

mice [3] = assay: motor coordination in the rotarod test; type: in vivo; conditions: 15 mg/kg i.p.; 6, 18 and 24 rpm
Excerpt: The neurotoxicity of the new compounds can result in impaired motor functions of the experimental animals, which may subsequently cause false interpretation of the results of in vivo tests. Understandably, neurotoxicity is also the frequent reason for eliminating the tested compound from further studies. To minimize that risk, we investigated the influence of our lead structures on motor coordination in the rotarod test, which is the classical test used for assessing motor coordination and balance in rodents. It provides a quick and simple estimation of neuromuscular coordination. […] The time spent on the rotarod apparatus was 60 s for each control mouse.
The test was carried out on the semiautomatic rotarod apparatus (Rotarod apparatus Panlab/Harvard Apparatus, LE 8200, Spain) according to the method previously described in the literature.[85] The mice were trained for 3 days on the rod rotating at a constant speed of 18 rotations per minute (rpm). During each training session, the animals were placed on the rod for 3 min with an unlimited number of trials. On the test day (24 h after the final training trial), 30 min before the rotarod test, the mice were pretreated (i.p.) with the test compound (15 mg/kg). Then, the animals were tested on the rotarod revolving at 6, 18, and then 24 rpm. Motor impairments, defined as the inability to remain on the rotating rod for 1 min, were measured at each speed.

[4] = target: T4, human histamine H4 receptor (hH4R) (Homo sapiens, UniProt Q9H3N8); assay: hH4R radioligand binding ([3H]UR-PI294); conditions: read-out: hH4R (Ki [nM] x̅ [CI 95%]); HEK293T cells; n = 3, triplicate
T4 construct: SP (signal peptide) (N); FLAG (N); expressed in transfected cells
T4 sequence (Q9H3N8 whole entry): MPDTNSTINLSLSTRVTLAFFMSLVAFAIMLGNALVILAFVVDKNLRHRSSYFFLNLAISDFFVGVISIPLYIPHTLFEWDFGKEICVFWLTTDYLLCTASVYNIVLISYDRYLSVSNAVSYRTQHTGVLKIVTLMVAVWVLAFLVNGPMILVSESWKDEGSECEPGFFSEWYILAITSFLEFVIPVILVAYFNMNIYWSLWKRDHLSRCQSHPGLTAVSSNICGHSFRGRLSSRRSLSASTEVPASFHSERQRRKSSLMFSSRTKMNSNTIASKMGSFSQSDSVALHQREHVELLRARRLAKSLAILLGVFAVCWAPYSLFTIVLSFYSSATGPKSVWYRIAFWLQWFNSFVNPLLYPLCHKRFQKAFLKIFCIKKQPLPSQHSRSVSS
Method: as §1, §2

[5] = parallel artificial membrane permeability assay (PAMPA); type: in vitro ADME; conditions: 100 μM in PBS pH 7.4, RT, read-out: Pe (permeability coefficient)
mice [6] = assay: spontaneous locomotor activity; type: in vivo; conditions: 15 mg/kg i.p.
Method: The high sedative activity of analgesics is considered an undesirable property, which may lead to an incorrect or ambiguous interpretation of the in vivo results. Moreover, it may limit the potential clinical application of new drug candidates.
This test was carried out according to the procedure described elsewhere.[84] The animals were injected (i.p.) with 12 at doses of 5, 15, and 30 mg/kg and placed in the activity cages individually (30 min before the experiment). The number of light-beam crossings was counted in each group during the next 30 min in 10 min intervals.

sigma-1 receptor (σ1R) [7] = assay: σ1R radioligand binding ([3H](+)-pentazocine); design: species or system guinea pig; conditions: ratio of σ2R Ki to σ1R Ki
sigma-1 receptor (σ1R) [8] = target: T5, sigma-1 receptor (σ1R) (Cavia porcellus, UniProt Q60492); assay: σ1R radioligand binding ([3H](+)-pentazocine); design: species or system guinea pig; conditions: read-out: σ1R Ki [nM] x̄ [CI 95%]; mean [CI 95%]
T5 construct: The thawed membrane preparation of the guinea pig brain cortex was incubated; from tissue; host or cells: male Dunkin-Hartley guinea pig brain cortex membranes
T5 sequence (Q60492 whole entry): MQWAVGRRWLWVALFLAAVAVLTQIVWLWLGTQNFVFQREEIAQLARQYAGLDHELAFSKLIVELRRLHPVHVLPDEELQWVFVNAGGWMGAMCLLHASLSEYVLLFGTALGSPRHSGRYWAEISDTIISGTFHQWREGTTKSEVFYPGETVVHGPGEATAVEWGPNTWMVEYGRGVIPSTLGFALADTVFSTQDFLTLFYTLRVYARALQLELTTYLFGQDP

mice [9] = assay: formalin test; type: in vivo; conditions: for ED50: Mus musculus, ip
Excerpt: The formalin test is one of the most useful screening models for testing potentially clinically relevant antinociceptive molecules because of its ease of administration, standardization, and validation with reference drugs.[50] The subcutaneous injection of formalin results in a focal injury that stimulates and then damages sensory endings. Two distinct phases of nociceptive response are associated with the immediate activation of nociceptors and sensitization of spinal reflex circuits during phase I and II responses, respectively.[51]
The procedure used was essentially the same as that described previously.[86],[87] Briefly, 20 μL of 1.5% formalin solution was injected intraplantarly (i.pl.) into the mice right hind paw using a 26-gauge needle. […] The total time (in seconds) spent on licking the injected paw during periods of 0–5 min (early phase, neurogenic) and 15–30 min (late phase, inflammatory) was measured and was considered as an indicator of nociceptive behavior. Before formalin injection, different groups of mice were treated i.p. with the vehicle (10 mL/kg, negative control) and the varying doses of 12 (5, 10, 15, and 30 mg/kg).

[10] = target: T6, human recombinant histamine H3R (Homo sapiens, UniProt Q9Y5N1); assay: hH3R radioligand binding ([3H]Nα-methylhistamine depletion assay); conditions: read-out: hH3R Ki [nM] x̄ [CI 95%]; mean [CI 95%]; HEK-293 cells
T6 construct: expressed in transfected cells
T6 sequence (Q9Y5N1 whole entry): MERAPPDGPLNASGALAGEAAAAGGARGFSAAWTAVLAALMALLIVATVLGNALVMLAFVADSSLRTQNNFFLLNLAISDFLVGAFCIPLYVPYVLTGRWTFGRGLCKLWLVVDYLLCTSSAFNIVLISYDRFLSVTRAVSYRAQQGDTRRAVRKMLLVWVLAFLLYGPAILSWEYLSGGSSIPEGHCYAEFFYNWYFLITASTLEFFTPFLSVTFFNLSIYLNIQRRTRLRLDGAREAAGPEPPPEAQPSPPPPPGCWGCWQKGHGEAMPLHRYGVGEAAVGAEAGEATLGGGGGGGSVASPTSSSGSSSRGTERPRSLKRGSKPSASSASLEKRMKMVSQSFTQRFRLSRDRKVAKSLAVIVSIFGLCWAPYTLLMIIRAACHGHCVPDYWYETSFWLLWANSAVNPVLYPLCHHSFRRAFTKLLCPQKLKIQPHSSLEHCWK

[11] = target: T6, human recombinant histamine H3R; conditions: read-out: hH3R Ki [nM] x̄ [CI 95%]; mean [CI 95%]; recalculated from published data; cited from earlier work
mice [12] = assay: loperamide-induced antinociception (paw pressure, struggle response latency); type: in vivo, Female CD1 mice
H3R = target: H3R; design: method as in PMID 30359639; conditions: Figure 1, compounds evaluated in clinical trials; cited from earlier work
[13] = pKa determination by potentiometric titration; type: physicochemical; conditions: for pKa: aqueous solution
Method: In addition, we tested the amino alcohol fragments of these compounds to carefully monitor the influence of individual protonated nitrogen atoms on the obtained pKa values (Figure 4). […] Based on a previously modified potentiometric procedure,[27],[28] a series of titrations were performed, and the pKa values were determined using the Kostrowicki and Liwo algorithm.[29],[30] […] That explains the surprising result of free base crystallization attempts where iodide salt was obtained instead of the neutral form. On the other hand, in the same environment, KSK94 exists in two forms: the monoprotonated form [HL^+] (20.56%) and the free ligand [L] (77.72%, Figure 5). […] KSK68 can be characterized as a basic ligand with pKa1 = 4.9 (pyridine N) and pKa2 = 8.4 (piperidine N). The pKa values are consistent with those determined by the same procedure for the corresponding amino alcohol 3-(4-(pyridin-4-yl)piperidin-1-yl)propan-1-ol (Figure 4). […] A similarly low pKa2 value for the N7 piperazine nitrogen atom was also determined for the corresponding amino alcohol 3-(4-(pyridin-4-yl)piperazin-1-yl)propan-1-ol (Figure 4), which is in agreement with the value obtained for 1-phenyl-4-methyl piperazine reported in the literature.[31] […] The lowest value was determined for 4-nitrophenyl, and the highest was for 2-methylphenyl derivatives.[32]
The potentiometric microtitration was performed in a thermostated 20 mL cell using a CerkoLab microtitration unit fitted with a pH electrode (Hydromet ERH-13-6). The electrode was calibrated with the use of buffer solutions: pH = 4.00, 7.00, and 10.00. Titrant T (0.1 M KOH) was standardized according to the general analytical procedure and protected from carbon dioxide. Double distilled water with a conductivity of about 0.18 mS/cm was used to prepare all aqueous solutions. DMSO (HPLC grade, 99.5%) was supplied by Sigma Aldrich. The concentration of the titrant solution (D) was 0.0025–0.005 M. The solubilization procedure was follows: The appropriate amount of KSK compound was dissolved in 1 mL 0.1 M HCl and 1 mL DMSO to prepare a 25 mL stock solution. The developed solubilization system can be recommended for poorly soluble derivatives. The analytical procedure was a follows: volume V0 = 4.5 mL of titrant D was titrated with 0.1 M titrant T using the CerkoLab System equipped with a 5 mL syringe pump.

[14] = observation during crystallization
[15] = 0–5 min after formalin, read-out: ED50, formalin test phase I (acute phase)
[16] = 15–30 min after formalin, read-out: ED50, formalin test phase II (late phase)
[17] = Figure 5, species distribution from titration curves
[18] = experimental, potentiometric titration

In the case of c1ccc(-c2ccc(OCCCN3CCCCCC3)cc2)cc1 [Compound 3, 1-(3-([1,1′-Biphenyl]-4-yloxy)propyl)azepane Oxalate], the Ki [1] is reported as 7620 nM, the Ki (sigma-2 receptor (σ2R)) is reported as 25 nM and the Ki ([2]; read-out: hH2R (Ki [nM] x̅ [CI 95%])) is reported as > 10000 nM. The “influence on motor coordination, time on rotarod” value (mice [3]) was “significantly impaired the motor coordination of mice”, the Ki [4] was > 10000 nM and the Papp at 5 h, 100 µM [5] was 65.7 nm/s. For the same molecule, the “influence on spontaneous locomotor activity (sedative effect)” value (mice [6]) was “high and significant sedative effects”, the σ2/σ1 ratio (sigma-1 receptor (σ1R) [7]) was 13.2 and the Ki (sigma-1 receptor (σ1R) [8]) was 1.9 nM. The ED50 (mice [9]; [15]) was 14.2 mg/kg, the ED50 (mice [9]; [16]) was 13.3 mg/kg and the Ki [10] was 4.3 nM.
For c1ccc(Nc2ccc(OCCCN3CCCCC3)cc2)cc1 [Compound 7, N-Phenyl-4-(3-(piperidin-1-yl)propoxy)aniline Oxalate], the Ki [1] was > 10000 nM, the Ki (sigma-2 receptor (σ2R)) was 116 nM and the Ki [2] was > 10000 nM. The “influence on motor coordination, time on rotarod” value (mice [3]) was “significantly decreased the time spent on the rod at 18 and 24 rpm”, the Ki [4] was > 10000 nM and the Papp at 5 h, 100 µM [5] was 106 nm/s. For the same molecule, the “influence on spontaneous locomotor activity (sedative effect)” value (mice [6]) was “high and significant sedative effects”, the σ2/σ1 ratio (sigma-1 receptor (σ1R) [7]) was 24.2 and the Ki (sigma-1 receptor (σ1R) [8]) was 4.8 nM. The ED50 (mice [9]; [15]) was 11.9 mg/kg, the ED50 (mice [9]; [16]) was 11.7 mg/kg and the “ED50, formalin test phase I (acute phase)” value (mice [9]; i.p., 0–5 min after formalin) was 11.95 mg/kg. The “ED50, formalin test phase II (late phase)” value (mice [9]; i.p., 15–30 min after formalin) was 11.71 mg/kg and the Ki [10] was 5.2 nM.
For c1ccc(-c2ccc(OCCCCCN3CCCCC3)cc2)cc1 [Compound 10, 1-(5-([1,1′-Biphenyl]-4-yloxy)pentyl)piperidine Oxalate], the Ki (sigma-2 receptor (σ2R)) is listed as 19 nM, the Ki [11] is listed as 21.7 nM and the Ki (sigma-1 receptor (σ1R) [8]) is listed as 140 nM.
For c1ccc(-c2ccc(OCCCCCCN3CCCCC3)cc2)cc1 [Compound 11, 1-(6-([1,1′-Biphenyl]-4-yloxy)hexyl)piperidine Oxalate], the Ki (sigma-2 receptor (σ2R)) is listed as 46 nM, the Ki [11] is listed as 88.9 nM and the Ki (sigma-1 receptor (σ1R) [8]) is listed as 118 nM.
With Cc1cc(OCCN2CCOCC2)nn1-c1ccc2ccccc2c1 [Compound S1RA, 4-[2-[[5-methyl-1-(2-naphthalenyl)1H-pyraol-3-yl]oxy]ethyl]morpholine hydrochloride] the “in vivo σ1 receptor functional profile” value (mice [12]; concluded from PRE-084 reversal) was “σ1 receptor antagonists”, the “effect on loperamide-induced antinociception” value (mice [12]; i.pl. with loperamide 4 mg/kg s.c., injected paw) was “significantly and dose-dependently (50–100 μg) increased the antinociceptive effect induced by loperamide” and the “effect alone on struggle response latency” value (mice [12]; i.pl., S1RA 100 μg, 12 25 μg, 450 g pressure) was “did not change the response to the mechanical stimulus”. The Ki (H3R) was > 10 µM and the Papp at 5 h, 100 µM [5] was 52.6 nm/s.
For c1cc(OCCCN2CCCCC2)ccc1CN1CCCCC1 [JNJ-5207852], the Ki (H3R) is given as 0.0003 µM.
In the case of O=C(c1ccc(OCCCN2CCC(c3ccncc3)CC2)cc1)C1CC1 [KSK68], the “pK of equilibrium H2L+2 = H+ + HL+” value [13, 17] is reported as 4.94, the “pK of equilibrium HL+ = H+ + L0” value [13, 17] is reported as 8.38 and the “monoprotonated form [HL+]” value ([13]; aqueous solution at physiological pH) is reported as “approximately 90%”. The pKa ([13]; experimental, potentiometric titration, read-out: pKa1) was 4.9, the pKa ([13]; experimental, potentiometric titration, read-out: pKa2) was 8.4 and the pKa1 [13, 18] was 4.94. The pKa2 [13, 18] was 8.38 and the solubility in water [14] was “more soluble in H2O than KSK67”.
